Test results as given in paper PMC3665828 (PLoS ONE, 2013).
Entries after “also recorded” stand apart in the source; their conditions may differ. Like-named read-outs stand apart in the source and are kept apart here. Starred links: 1 amine or outer side, 2 acyl side, 3 side chain; linkers in the order of their positions; H or OH if unused. Residues, ends and D or L forms follow the SMILES beside them. No end group written: not given here. CO = O=C([*:1])[*:2]

Columns and labels:
[1] = target: recombinant human ACE-1 (Homo sapiens, UniProt P12821); assay: Incubation of angiotensin peptides with recombinant ACE-1 (MALDI-MS); settings: peptide 10^−5 M, 0.25 µg recombinant human ACE-1, MALDI-MS after 8 h
Experimental: (§1) At defined incubation times aliquots (10 µl) were taken from the reaction mixtures. Reaction was stopped by addition of formic acid adjusting a final concentration of 0.2% (v/v) formic acid/HPLC-grade water. Samples were analyzed by MALDI-MS (Reflex IV, Bruker) using DHB as matrix.
It is known that ACE-1 generates ANG-1-8 by removal of the last two C-terminal amino acids (His9-Leu10) of ANG-1-10. […] The reaction products were analyzed by MALDI-MS (Figure S7).
Supplementary file pone.0064027.s007.tif: Figure S7 Processing of angiotensin peptides by recombinant ACE-1. […] ACE-1 was incubated with A) ANG-1-10, B) ANG-2-10, C) ANG-3-10, D) ANG-4-10, E) ANG-5-10. Reaction products were analyzed by MALDI-MS after an incubation time of 8 h. MALDI-MS-Signals which were assigned as angiotensin peptides are marked by arrows. (TIF) Click here for additional data file.

[2] = target: recombinant human aminopeptidase N (APN) (Homo sapiens, UniProt P15144); assay: Incubation of angiotensin peptides with recombinant aminopeptidase N (MALDI-MS); settings: for Cleavage products generated from the substrate by recombinant aminopeptidase N (APN): substrate 10^−5 M in HPLC-grade water, 0.25 µg recombinant human APN per 100 µl, reaction products detected by MALDI-MS
Experimental: as §1
APN is a protease that is known to cleave ANG-2-8 between the Arg2-Val3 in vitro [22] and in vivo [23], [24]. Thus it is a potential protease for the generation of ANG-3-10.

[3] = test system: immobilized human plasma proteins; assay: Incubation of angiotensin peptides with immobilized human plasma proteins; assay type: in vitro ADME
Experimental: For incubation experiments human venous citrate blood (ratio 1∶9, blood to sodium citrate 3,13% (Eifelfango)) was obtained by catheterization from the cubital vein of a healthy volunteer (blood pressure: normal, <120/80 mmHg).
Analysis of the reaction by SRM was performed on a LC-ESI-QQQ-MS system. Exoproteolytic processing of these angiotensin peptides requires the presence of plasma proteases which are able to cognate and cleave the intermediate angiotensin peptides. […] When ANG-5-10 was incubated in presence of human immobilized plasma proteins time the dependent generation of ANG-6-10 was detected. After an incubation period of 8 h nearly no angiotensin peptides were detected in any of the reaction mixtures.
Dry Sepharosebeads® were swollen in 10 ml 0.1 mM hydrochloric acid/ HPLC (high pressure liquid chromatography)-grade water for 30 min on a rotating shaker. Subsequently they were washed repeatedly with HPLC-grade water (Lichrosolve, Merck). Afterwards Sepharosebeads® were equilibrated by multiple washing steps with protein coupling buffer (100 mM NaHCO3, 500 mM NaCl, pH 8,3). For protein immobilization plasma samples with a volume of 40 µl were mixed with coupling buffer in a ratio of 1:6 and mixed with the prepared Sepharosebeads® followed by incubation for 2h on a rotating shaker (room temperature). As a control heat inactivated plasma (boiled for 5 min) was immobilized. A volume of 40 µl swollen Sepharosebeads® was used per sample. After protein immobilization the Sepharosebeads® were washed three times with HPLC-grade water. Free binding sites of the Sepharosebeads® were saturated by incubation with blocking buffer (100 mM NaHCO3,500 mM NaCl, pH 8,3, 1 M Glycine, pH 8,3) for 2h on a rotating shaker (room temperature).

[4] = test system: non-immobilized human plasma
Experimental: From this blood sample an aliquot of 10 ml was saved for the incubation experiments. The rest of the blood sample was immediately mixed with protease inhibitor cocktail (including 2 mM AEBSF, 0.3 µM aprotinin, 130 µM bestatin, 1 mM EDTA, 14 µM E-64 and 1 µM leupeptin (Sigma-Aldrich)) in a ratio of 1∶50.
For incubation of non-immobilized plasma a reaction volume of 200 µl non-immobilized undiluted and diluted plasma (1∶100 in HPLC-grade water) was used per sample. Incubation was started by addition of ANG-1-10 to a final concentration of 10^−5 M. Incubation was carried out at 37°C on a rotating shaker. As a control 200 µl of a 10^−5 M ANG-1-10 solution without plasma was incubated under the same conditions.
The reaction products derived from the incubation of non-immobilized plasma proteins were desalted by solid phase extraction (Hydophilic lipophilic balance (HLB) µElution plate, Waters). The HLB material was equilibrated by three washing steps with 0.2% formic acid/HPLC-grade water by centrifugation of the plate for 1 min with 500×g. Next, the sample was applied to the HLB material and centrifuged for 2 min with 200×g. The flow-through was discarded and unbound molecules were removed by washing the HLB material 3 times with 0.2% formic acid/HPLC-grade water by centrifugation of the plate for 2 min with 500×g. […]

[5] = test system: immobilized mouse plasma proteins
Experimental: (§2) Heparinized (10 IU/ml) mouse and rat blood (200 µl) was obtained from the caudal vein. Plasma was isolated from all blood samples by centrifugation (4–16 K, Sigma) 4000×g for 15 min.
(§3) For the immobilization of plasma proteins CNBr-activated Sepharosebeads® 6MB (GE Healthcare) were used. Protein immobilization was perfomed as described in the product information sheet for CNBr-activated Sepharosebeads® (Sigma Aldrich) except for modifications described in the supporting information part “immobilization of plasma proteins” (Methods S1).
Incubation of immobilized plasma proteins and the control samples (glycine derivatized Sepharosebeads® without immobilized proteins and heat inactivated immobilized plasma proteins for the incubation with ANG-1-10) was started by addition of the individual angiotensin peptides (final concentration of 10^−5 M, solved in HPLC-grade water, Lichrosolve, Merck) to the beads. Incubation was carried out at 37°C on a rotating shaker. […]
To investigate the processing of ANG-1-10 by human plasma proteases we used a mass spectrometry based enzyme screening (MES) system [20]. Therefore immobilized murine and human plasma proteins were incubated with ANG-1-10 and the reaction products were analyzed by mass spectrometry. […]
ANG-1-10 (10^−5 M) was incubated with immobilized mouse plasma proteins. Reaction products were detected by MALDI-MS after 0 h, 3 h, 4 h and 8 h. […]

[6] = test system: immobilized rat plasma proteins
Experimental: as §2, §3
Incubation of immobilized plasma proteins and the control samples (glycine derivatized Sepharosebeads® without immobilized proteins and heat inactivated immobilized plasma proteins for the incubation with ANG-1-10) was started by addition of the individual angiotensin peptides (final concentration of 10^−5 M, solved in HPLC-grade water, Lichrosolve, Merck) to the beads. Incubation was carried out at 37°C on a rotating shaker. The final reaction volume of the samples was 30 µl.
Identification of the reaction products was done by comparison of the m/z values of the peaks in the mass spectra with the theoretical m/z values (Table S2) of possible angiotensin peptide products.
ANG-1-10 (10^−5 M) was incubated with immobilized rat plasma proteins. Reaction products were detected by MALDI-MS after 0 h, 1 h, 3 h and 8 h.

[7] = test system: angiotensin-generating proteases of immobilized human plasma proteins; assay: Incubation of immobilized human plasma proteins with ANG-1-10 in the presence of protease inhibitors (SRM-MS); assay type: biochemical
Experimental: The control was incubated with immobilized plasma proteins in the absence of inhibitors. The incubation with immobilized plasma proteins was carried out as described in “Incubation of immobilized plasma proteins”. The incubation was started by addition of ANG-1-10 to a final concentration of 10^−5 M to the immobilized plasma proteins.
The reaction products were analyzed by SRM-MS after 6 h (Figure S6).
Supplementary file pone.0064027.s006.tif: Figure S6 Processing of ANG-1-10 by immobilized human plasma proteases in the presence and abscence of protease inhibitors. […] Right y-axis: AUC of ANG-2-10 and ANG-3-10 after incubation in presence of EDTA. (TIF) Click here for additional data file.

[8] = test system: recombinant human aminopeptidase N (APN); assay: 0.25 µg recombinant human aminopeptidase N in 100 µl angiotensin solution; settings: up to 24 h
[9] = immobilized human plasma proteins (CNBr-activated Sepharosebeads); settings: 37°C, up to 24 h
[10] = test system: angiotensin converting enzyme-1 (ACE-1); assay: 0.25 µg recombinant human ACE-1 in 100 µl angiotensin solution; settings: up to 8 h
[11] = test system: APN; assay: in vitro and in vivo; settings: cited from earlier work
[12] = rat blood; settings: cited from earlier work
[13] = test system: anti ANG-1-10 antibody (rabbit polyclonal); settings: rabbit polyclonal antibody of the kit; ref Fluorescent EIA Kit, phoenix pharmaceuticals; cited from earlier work
Experimental: The RP-HPLC plasma peptide fractionations corresponding to the retention times of the synthetic angiotensin peptides were analyzed by an immuno-fluorescence assay that was originally manufactured for the quantification of ANG-1-10.

[14] = substrate 10^−5 M, immobilized human plasma proteins, 37°C, SRM-MS (LC-ESI-QQQ-MS) / MALDI-MS
[15] = ANG-1-10 10^−5 M, immobilized human plasma proteins, 200 µM AEBSF, 50 µM antipain, 150 µM bestatin, 10 µM captopril, 100 µM chymostatin, 100 µM EDTA, SRM-MS after 6 h, mean ± SEM, n = 3
[16] = ANG-1-10 10^−5 M, immobilized human plasma proteins, 200 µM AEBSF, 50 µM antipain, 150 µM bestatin, 100 µM EDTA, SRM-MS after 6 h, mean ± SEM, n = 3

Sequence of recombinant human ACE-1 (P12821 30-1306): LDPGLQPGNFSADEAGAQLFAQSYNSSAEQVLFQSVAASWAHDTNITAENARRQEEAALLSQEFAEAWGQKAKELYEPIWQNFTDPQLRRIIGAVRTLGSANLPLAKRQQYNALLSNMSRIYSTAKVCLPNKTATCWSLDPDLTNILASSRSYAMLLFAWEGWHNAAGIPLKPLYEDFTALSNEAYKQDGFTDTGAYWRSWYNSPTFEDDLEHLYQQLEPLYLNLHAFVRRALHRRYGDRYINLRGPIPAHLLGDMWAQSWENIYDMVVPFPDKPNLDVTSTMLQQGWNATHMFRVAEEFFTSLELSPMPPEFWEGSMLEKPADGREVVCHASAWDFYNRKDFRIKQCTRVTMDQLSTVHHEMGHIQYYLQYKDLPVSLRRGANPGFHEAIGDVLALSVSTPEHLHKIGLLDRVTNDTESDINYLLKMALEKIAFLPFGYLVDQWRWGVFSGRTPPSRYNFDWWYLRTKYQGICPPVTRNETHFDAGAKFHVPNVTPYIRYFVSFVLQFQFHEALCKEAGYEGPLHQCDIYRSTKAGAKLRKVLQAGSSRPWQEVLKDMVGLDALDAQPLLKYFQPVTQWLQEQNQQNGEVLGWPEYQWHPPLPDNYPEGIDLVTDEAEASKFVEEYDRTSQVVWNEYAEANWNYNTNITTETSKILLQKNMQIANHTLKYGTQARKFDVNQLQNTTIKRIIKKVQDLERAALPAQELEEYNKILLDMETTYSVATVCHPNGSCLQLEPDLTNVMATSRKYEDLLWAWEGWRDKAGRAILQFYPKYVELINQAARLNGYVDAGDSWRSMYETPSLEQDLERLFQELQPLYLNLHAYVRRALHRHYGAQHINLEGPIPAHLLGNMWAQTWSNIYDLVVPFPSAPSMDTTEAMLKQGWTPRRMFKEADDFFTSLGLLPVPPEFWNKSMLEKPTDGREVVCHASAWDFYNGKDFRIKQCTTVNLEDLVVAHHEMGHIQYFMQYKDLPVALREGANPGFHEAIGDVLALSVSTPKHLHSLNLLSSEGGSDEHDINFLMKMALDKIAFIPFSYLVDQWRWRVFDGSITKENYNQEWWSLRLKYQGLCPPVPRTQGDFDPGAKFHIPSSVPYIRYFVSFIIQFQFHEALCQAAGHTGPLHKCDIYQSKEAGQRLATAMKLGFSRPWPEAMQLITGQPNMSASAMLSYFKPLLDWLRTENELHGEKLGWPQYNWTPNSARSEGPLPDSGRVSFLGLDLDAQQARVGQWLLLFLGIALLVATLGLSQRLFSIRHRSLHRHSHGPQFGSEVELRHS
Sequence of recombinant human aminopeptidase N (APN) (Homo sapiens, UniProt P15144) (P15144 whole entry): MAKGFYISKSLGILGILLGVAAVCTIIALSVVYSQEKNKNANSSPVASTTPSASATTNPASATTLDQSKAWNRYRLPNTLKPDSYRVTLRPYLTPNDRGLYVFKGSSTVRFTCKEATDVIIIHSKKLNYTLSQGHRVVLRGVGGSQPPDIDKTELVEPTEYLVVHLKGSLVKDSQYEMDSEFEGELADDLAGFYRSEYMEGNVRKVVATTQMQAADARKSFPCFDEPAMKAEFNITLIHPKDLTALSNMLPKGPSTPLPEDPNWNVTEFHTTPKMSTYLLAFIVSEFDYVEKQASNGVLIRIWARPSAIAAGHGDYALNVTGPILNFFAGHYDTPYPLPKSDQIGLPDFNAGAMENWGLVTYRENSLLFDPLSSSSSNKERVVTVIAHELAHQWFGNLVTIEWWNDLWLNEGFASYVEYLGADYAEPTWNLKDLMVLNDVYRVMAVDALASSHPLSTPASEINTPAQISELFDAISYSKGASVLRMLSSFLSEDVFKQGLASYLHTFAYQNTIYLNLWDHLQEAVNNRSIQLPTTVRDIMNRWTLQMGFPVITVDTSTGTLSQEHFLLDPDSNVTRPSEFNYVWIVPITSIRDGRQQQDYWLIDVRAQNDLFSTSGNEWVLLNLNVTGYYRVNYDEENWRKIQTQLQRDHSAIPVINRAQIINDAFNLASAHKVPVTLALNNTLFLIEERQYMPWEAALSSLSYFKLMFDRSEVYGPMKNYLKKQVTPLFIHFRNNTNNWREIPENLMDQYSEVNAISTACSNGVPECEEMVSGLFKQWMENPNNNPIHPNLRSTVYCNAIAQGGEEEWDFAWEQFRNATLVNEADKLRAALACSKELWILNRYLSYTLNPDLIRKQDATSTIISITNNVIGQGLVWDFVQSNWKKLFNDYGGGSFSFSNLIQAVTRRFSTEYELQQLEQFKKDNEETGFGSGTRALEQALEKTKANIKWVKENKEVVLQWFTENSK

In the case of IHPFHL [ANG-5-10], the “Reaction product generated by recombinant ACE-1” value (from here on “Reaction product generated”) [1] was “ANG-5-8”, the “Cleavage products generated from the substrate by recombinant aminopeptidase N (APN)” value (“Cleavage products generated” for short) [2] was “HPFHL” and the “Reaction products generated from the substrate by immobilized human plasma proteins” value [3, 14] was “ANG-6-10”.

With DRVYIHPFHL [ANG-1-10, angiotensin I] the “Reaction products generated from the substrate by non-immobilized human plasma proteins” value [4] was “A-1-9, ANG-1-8, ANG-1-7, ANG-2-10, ANG-3-10, ANG-4-10, ANG-5-10 and ANG-6-10”, the “Only reaction products left after 8 h of incubation, mouse plasma” value [5] was “ANG-1-8” and the “Reaction products generated from the substrate by immobilized mouse plasma proteins” value [5] was “ANG-1-8 (m/z 1046.5), ANG-1-7 (m/z 899.5), ANG-2-10 (m/z 1181.7), ANG-3-10 (m/z 1025.6), ANG-4-10 (m/z 926.5), ANG-5-10 (m/z 763.4)”. The “Reaction products generated from the substrate by immobilized human plasma proteins” value [3] was “A-1-9, ANG-1-8, ANG-1-7, ANG-2-10, ANG-3-10, ANG-4-10, ANG-5-10 and ANG-6-10”, the “Only reaction products left after 8 h of incubation, rat plasma” value [6] was “ANG-1-7, ANG-1-8 and ANG-5-10” and the “Reaction products generated from the substrate by immobilized rat plasma proteins” value [6] was “ANG-1-8 (m/z 1046.5), ANG-1-7 (m/z 899.5), ANG-2-10 (m/z 1181.7), ANG-3-10 (m/z 1025.6), ANG-4-10 (m/z 926.5), ANG-5-10 (m/z 763.4)”.

In the case of `C[C@H](CS)C(=O)N1CCC[C@H]1C(=O)O` [Captopril], the “Change of ANG-6-10-generating activity in the presence of inhibitor” value [7, 15] was 0.98±0.32.

For `CC(C)C[C@H](NC(=O)[C@@H](NC(=O)N[C@@H](Cc1ccccc1)C(=O)O)[C@@H]1CCN=C(N)N1)C(=O)N[C@H](C=O)Cc1ccccc1` [Chymostatin], the “Change of ANG-6-10-generating activity in the presence of inhibitor” value [7] was 1.30±0.14.

In the case of `NCCc1ccc(S(=O)(=O)F)cc1` [AEBSF], the “Change of ANG-3-10-generating activity in the presence of inhibitor” value [7, 16] was “inhibited”.

With VYIHPFHL the fragment found [8] was “ANG-4-10, 1 h; also recorded: ANG-6-10, 1 h”, the fragment found [9] was “ANG-4-10; also recorded: ANG-5-10; also recorded: ANG-6-10” and the cleaved bond [10] was “F8-His9”.

With `O=C(O)CN(CCN(CC(=O)O)CC(=O)O)CC(=O)O` [EDTA] the “Change of ANG-3-10-generating activity in the presence of inhibitor” value [7, 16] was 3.4±0.8.

With `CC[C@H](C)[C@H](NC(=O)[C@H](Cc1ccc(O)cc1)NC(=O)[C@@H](NC(=O)[C@H](CCCNC(=N)N)NC(=O)[C@@H](N)CC(=O)O)C(C)C)C(=O)N[C@@H](Cc1cnc[nH]1)C(=O)N1CCC[C@H]1C(=O)N[C@@H](Cc1ccccc1)C(=O)O` [ANG-1-8, angiotensin II] the “Cleavage products generated” value [2] was “none”.

In the case of YIHPFHL [ANG-4-10], the “Reaction product generated” value [1] was “ANG-4-8” and the “Cleavage products generated” value [2] was “IHPFHL; also recorded: HPFHL”.

In the case of RVYIHPFHL [ANG-2-10], the “Reaction product generated” value [1] was “ANG-2-8”, the “Cleavage products generated” value [2] was “VYIHPFHL; also recorded: YIHPFHL; also recorded: IHPFHL; also recorded: HPFHL” and the “Further reaction products detected by MALDI-MS after 8 h of incubation” value ([3]; substrate 10^−5 M, immobilized human plasma proteins, 37°C, MALDI-MS after 8 h) was “ANG-2-8 (m/z 931.5), ANG-3-8 (m/z 775.4) and ANG-4-8 (m/z 676.3)”. For the same molecule, the “Reaction products generated from the substrate by immobilized human plasma proteins” value [3, 14] was “ANG-3-10, ANG-4-10, ANG-5-10 and ANG-6-10”.

For HPFHL, the not cleaved [8] was “not further degraded by APN within 24 h”.

In the case of YIHPFHL, the fragment found [8] was “ANG-5-10, 1 h; also recorded: ANG-6-10, 1 h”, the fragment found [9] was “ANG-5-10; also recorded: ANG-6-10” and the cleaved bond [10] was “F8-His9”.

With `CC(C)C[C@H](NC(=O)[C@@H](O)[C@H](N)Cc1ccccc1)C(=O)O` [Bestatin] the “Change of ANG-6-10-generating activity in the presence of inhibitor” value [7, 15] was 0.76±0.14 and the “Change of ANG-3-10-generating activity in the presence of inhibitor” value [7, 16] was “Higher amounts”.

In the case of `CC(C)[C@H](NC(=O)[C@H](CCCNC(=N)N)NC(=O)N[C@@H](Cc1ccccc1)C(=O)O)C(=O)N[C@H](C=O)CCCNC(=N)N` [Antipain] ({Phe-CO}-Arg-Val-Arg-aldehyde), the “Change of ANG-6-10-generating activity in the presence of inhibitor” value [7] was “slightly inhibited”, the “Change of ANG-2-10-generating activity in the presence of inhibitor” value ([7]; ANG-1-10 10^−5 M, immobilized human plasma proteins, 50 µM antipain, 150 µM bestatin, 100 µM EDTA, SRM-MS after 6 h, mean ± SEM, n = 3) was −0.12±0.023 and the “Change of ANG-4-10-generating activity in the presence of inhibitor” value ([7]; ANG-1-10 10^−5 M, immobilized human plasma proteins, 50 µM antipain, SRM-MS after 6 h, mean ± SEM, n = 3) was -0.21±0.05. The “Change of ANG-3-10-generating activity in the presence of inhibitor” value [7, 16] was “inhibited”.

In the case of HPFHL [ANG-6-10], the “Reaction product generated” value [1] was “no cleavage product was observed” and the “Stability towards APN” value ([2]; within 24 h of incubation with recombinant APN, MALDI-MS) was “not further degraded”.

In the case of VYIHPFHL [ANG-3-10], the “Reaction product generated” value [1] was “ANG-3-8”, the “Cleavage products generated” value [2] was “YIHPFHL; also recorded: HPFHL” and the “Reaction products generated from the substrate by immobilized human plasma proteins” value [3, 14] was “ANG-4-10, ANG-5-10 and ANG-6-10”.

For RVYIHPF, the cleaved bond [11] is listed as “Arg2-Val3”.

For IHPFHL, the fragment found [8] was “ANG-6-10”, the fragment found [9] was “ANG-6-10” and the cleaved bond [10] was “F8-His9”.

For RVYIHPFHL, the fragment found [8] was “ANG-3-10, 1 h; also recorded: ANG-4-10, 1 h; also recorded: ANG-5-10, 4 h; also recorded: ANG-6-10, 8 h”, the fragment found [9] was “ANG-3-10; also recorded: ANG-4-10; also recorded: ANG-5-10; also recorded: ANG-6-10; also recorded: ANG-2-8, 8 h; also recorded: ANG-3-8, 8 h; also recorded: ANG-4-8, 8 h” and the cleaved bond [10] was “F8-His9”. The fragment found [12] was “ANG-2-8”.

In the case of “RVYIHPF [ANG-2-8, angiotensin peptide also known as AIII]”, the “Cross reactivity with the anti ANG-1-10 antibody” value [13] is given as “no cross reactivity”.
